Key:
Test in all cases: relative viability (nuclei count vs DMSO), 5 days (fraction); higher = more cells survive
[1] = compound: O=C(O)c1ccc2c(c1)nc(Nc1cccc(Cl)c1)c1ccncc12 [Silmitasertib] + Cc1cc(Nc2cc(N3CCN(C)CC3)nc(Sc3ccc(NC(=O)C4CC4)cc3)n2)n[nH]1 [Tozasertib] (partner 0.1 µM)
Summary of the method: (§1)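 Relative viability equals treated-well nuclei counts divided by vehicle-well nuclei counts. Counts came from 4× images of lung cancer cell lines grown in 1536-well plates for 5 days after pin-tool dosing on the day after seeding. Dosing used one drug alone or a fixed anchor-drug dose plus five library-drug doses (not always all listed) in √10 steps, and values are medians of duplicate plates.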

Silmitasertib + AZD7762 = compound: O=C(O)c1ccc2c(c1)nc(Nc1cccc(Cl)c1)c1ccncc12 [Silmitasertib] + NC(=O)Nc1cc(-c2cccc(F)c2)sc1C(=O)N[C@H]1CCCNC1 [AZD7762] (partner 0.2 µM)
Summary of the method: as §1

[2] = compound: O=C(O)c1ccc2c(c1)nc(Nc1cccc(Cl)c1)c1ccncc12 [Silmitasertib] + CC(=O)Nc1cccc(-n2c(=O)n(C3CC3)c(=O)c3c(Nc4ccc(I)cc4F)n(C)c(=O)c(C)c32)c1 [Trametinib] (partner 0.02 µM)
Summary of the method: as §1

[3] = compound: O=C(O)c1ccc2c(c1)nc(Nc1cccc(Cl)c1)c1ccncc12 [Silmitasertib] + Cc1nc(Nc2ncc(C(=O)Nc3c(C)cccc3Cl)s2)cc(N2CCN(CCO)CC2)n1 [Dasatinib] (partner 0.075 µM)
Summary of the method: as §1

[4] = compound: O=C(O)c1ccc2c(c1)nc(Nc1cccc(Cl)c1)c1ccncc12 [Silmitasertib] + CC(=O)c1c(C)c2cnc(Nc3ccc(N4CCNCC4)cn3)nc2n(C2CCCC2)c1=O [Palbociclib] (partner 0.5 µM)
Summary of the method: as §1

Cell Line | relative viability ([1]; first compound 0.04 µM) | relative viability ([1]; first compound 0.4 µM) | relative viability ([1]; first compound 1.265 µM) | relative viability ([1]; first compound 4 µM) | relative viability (Silmitasertib + AZD7762; first compound 0.04 µM) | relative viability (Silmitasertib + AZD7762; first compound 0.4 µM) | relative viability (Silmitasertib + AZD7762; first compound 1.265 µM) | relative viability (Silmitasertib + AZD7762; first compound 4 µM) | relative viability ([2]; first compound 0.04 µM) | relative viability ([2]; first compound 0.4 µM) | relative viability ([2]; first compound 1.265 µM) | relative viability ([2]; first compound 4 µM) | relative viability ([3]; first compound 0.04 µM) | relative viability ([3]; first compound 0.4 µM) | relative viability ([3]; first compound 1.265 µM) | relative viability ([3]; first compound 4 µM) | relative viability ([4]; first compound 0.04 µM) | relative viability ([4]; first compound 0.4 µM) | relative viability ([4]; first compound 1.265 µM) | relative viability ([4]; first compound 4 µM)
NCI-H647 | 0.324 | 0.211 | 0.196 | 0.175 | 0.513 | 0.364 | 0.404 | 0.19 | 0.524 | 0.57 | 0.399 | 0.431 | 0.185 | 0.266 | 0.171 | 0.0776 | 0.505 | 0.376 | 0.33 | 0.282
NCI-H2009 | 0.817 | 0.839 | 0.719 | 0.474 |  |  |  |  | 0.342 | 0.271 | 0.254 | 0.239 | 0.35 | 0.297 | 0.246 | 0.218 | 0.234 | 0.199 | 0.193 | 0.203
EPLC-272H | 0.215 |  | 0.205 | 0.187 | 0.232 |  | 0.275 | 0.217 | 0.319 |  | 0.214 | 0.279 | 0.372 |  | 0.255 | 0.224 | 0.319 |  | 0.343 | 0.304
NCI-H520 | 0.443 | 0.429 | 0.42 | 0.394 |  |  |  |  | 0.832 | 0.668 | 0.524 | 0.626 | 0.274 | 0.215 | 0.196 | 0.193 | 0.269 | 0.238 | 0.172 | 0.245
NCI-H2405 | 0.772 | 0.526 | 0.652 | 0.665 | 0.803 | 0.754 | 0.617 | 0.634 | 0.681 | 0.605 | 0.619 | 0.775 | 0.221 | 0.209 | 0.222 | 0.236 | 0.574 | 0.501 | 0.425 | 0.536
NCI-H2085 | 0.82 | 0.737 | 0.602 | 0.533 | 0.974 | 0.702 | 0.86 | 0.858 | 0.641 | 0.454 | 0.423 | 0.386 | 0.253 | 0.233 | 0.245 | 0.265 | 0.461 | 0.446 | 0.473 | 0.439
NCI-H322M | 0.51 | 0.505 | 0.377 | 0.342 | 0.554 | 0.608 | 0.562 | 0.405 | 0.61 | 0.5 | 0.47 | 0.553 | 0.243 | 0.294 | 0.282 | 0.294 | 0.411 | 0.486 | 0.422 | 0.351
NCI-H1944 | 0.259 | 0.266 | 0.237 | 0.308 | 0.591 | 0.399 | 0.547 | 0.528 | 0.419 | 0.403 | 0.481 | 0.429 | 0.229 | 0.235 | 0.227 | 0.224 | 0.335 | 0.359 | 0.314 | 0.383
LC-2-ad | 0.537 | 0.411 | 0.388 | 0.374 | 0.95 | 0.811 | 0.797 | 0.494 | 0.987 | 0.813 | 0.892 | 0.772 | 0.915 | 0.482 | 0.384 | 0.276 | 0.47 | 0.499 | 0.462 | 0.538
NCI-H358 | 0.121 | 0.0941 | 0.115 | 0.083 | 0.633 | 0.574 | 0.595 | 0.567 | 0.163 | 0.127 | 0.145 | 0.143 | 0.176 | 0.312 | 0.14 | 0.155 | 0.133 | 0.128 | 0.134 | 0.125
NCI-H2170 | 0.673 | 0.478 | 0.713 | 0.65 | 0.89 | 0.554 | 0.836 | 0.968 | 0.918 | 0.661 | 0.833 | 0.821 | 0.61 | 0.502 | 0.676 | 0.598 | 0.371 | 0.284 | 0.363 | 0.344
A-427 | 0.19 |  | 0.132 | 0.15 | 0.852 | 0.555 | 0.562 | 0.445 | 0.952 | 0.595 | 0.785 | 0.497 | 0.724 |  | 0.858 | 0.335 | 0.555 | 0.451 | 0.583 | 0.517
NCI-H1666 | 0.734 | 0.626 | 0.543 | 0.446 | 0.915 | 0.857 | 0.763 | 0.627 | 0.915 | 0.728 | 0.876 | 0.752 | 0.837 | 0.664 | 0.623 | 0.615 | 0.617 | 0.654 | 0.578 | 0.61
LOU-NH91 | 0.689 | 0.539 | 0.441 | 0.484 | 0.785 | 0.745 | 0.621 | 0.594 | 0.786 | 0.771 | 0.722 | 0.731 | 0.585 | 0.475 | 0.46 | 0.383 | 0.519 | 0.522 | 0.579 | 0.553
ABC-1 | 0.19 | 0.165 | 0.185 | 0.193 | 0.948 | 0.824 | 0.8 | 0.567 |  |  |  |  | 0.632 | 0.505 | 0.321 | 0.391 | 1.09 | 0.86 | 0.555 | 0.674
NCI-H1651 | 0.785 | 0.556 | 0.541 | 0.443 | 0.505 | 0.449 | 0.481 | 0.675 | 0.881 | 0.714 | 0.84 | 0.848 | 0.49 | 0.387 | 0.448 | 0.384 | 0.495 | 0.516 | 0.534 | 0.528
201T | 0.955 | 0.818 | 1.04 | 1.05 | 0.636 | 0.372 | 0.754 | 0.682 | 0.738 | 0.709 | 0.804 | 0.893 | 0.533 | 0.593 | 0.522 | 0.612 | 0.353 | 0.346 | 0.37 | 0.387
